In patent publication US20080188469A1, “VACCINATION” (Glaxo Group Limited, priority 2002, published 2008):

System: antigen specific cytokine producing cells in splenocytes
Experiment: Imiquimod given with particle-mediated DNA vaccination (pVAC1.ova.cyt) of mice; cytokine producing splenocytes by ELISPOT
Type: in vivo, C57B1/6 mice
Settings: imiquimod 30 mg/kg, single subcutaneous injection at the immunisation site, immediately following vaccination
Experimental: To examine whether the timing of imiquimod administration could affect the numbers of antigen specific cytokine producing cells in splenocytes pVAC1.ova.cyt (prepared according to example 1) was administered by particle mediated gene transfer (0.05 μg/cartridge) into the skin of mice.
If given, immediately following vaccination imiquimod (prepared as a suspension in vehicle which comprised 0.3% (w/v) methylcellulose and 0.1% (v/v) Tween in sterile water) was administered by a single subcutaneous injection (0.05 ml/10 g body weight formulated to provide a dose of 30 mg/kg)) at the immunisation site. Plasmid and imiquimod controls were empty vector (pVAC1) and vehicle, respectively.
All mice received pVAC1. ova.cyt or empty vehicle pVAC1 at day 0 and week 4. One group of mice received imiquimod at day 0 only (Im prime), a second group of mice received imiquimod at week 4 only (Im boost) and another group received imiquimod at day 0 and week 4 (Im pr+boost).
At day 12 spl enocytes were collected and IFN-γ and IL-2 producing cells were measured by ELISPOT.

CC(C)Cn1cnc2c(N)nc3ccccc3c21 [Imiquimod, imiquimod]
Magnitude of the cytotoxic T cell response to a nucleic acid vaccine: Increases the Magnitude of the Cytotoxic T Cell Response
